Reference: the supplement of paper PMC10307832

How the values were obtained:
Experiment in all cases: relative viability (nuclei count vs DMSO), 5 days (fraction); higher = more cells survive
PAC-1 + AZD7762 = compound: C=CCc1cccc(/C=N/NC(=O)CN2CCN(Cc3ccccc3)CC2)c1O [PAC-1] + NC(=O)Nc1cc(-c2cccc(F)c2)sc1C(=O)N[C@H]1CCCNC1 [AZD7762] (partner 0.2 µM)
Outline: (§1)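 Medians of duplicate plates are given as relative viability. That measure is the nuclei count in treated wells divided by the count in vehicle wells. Counts were taken on 4× images of lung cancer cell lines in 1536-well plates, 5 days after pin-tool dosing the day after seeding with one drug alone or a fixed anchor-drug dose plus five library-drug doses (not always all listed) in √10 steps.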

BMX-IN-1 + Luminespib = compound: C=CC(=O)Nc1cc(-n2c(=O)ccc3cnc4ccc(-c5ccc(NS(C)(=O)=O)cc5)cc4c32)ccc1C [BMX-IN-1] + CCNC(=O)c1noc(-c2cc(C(C)C)c(O)cc2O)c1-c1ccc(CN2CCOCC2)cc1 [Luminespib] (partner 0.01 µM)
Outline: as §1

Ibrutinib + Alpelisib = compound: C=CC(=O)N1CCC[C@@H](n2nc(-c3ccc(Oc4ccccc4)cc3)c3c(N)ncnc32)C1 [Ibrutinib] + Cc1nc(NC(=O)N2CCC[C@H]2C(N)=O)sc1-c1ccnc(C(C)(C)C(F)(F)F)c1 [Alpelisib] (partner 2 µM)
Outline: as §1

BMX-IN-1 + Pemetrexed = compound: C=CC(=O)Nc1cc(-n2c(=O)ccc3cnc4ccc(-c5ccc(NS(C)(=O)=O)cc5)cc4c32)ccc1C [BMX-IN-1] + Nc1nc2[nH]cc(CCc3ccc(C(=O)N[C@@H](CCC(=O)O)C(=O)O)cc3)c2c(=O)[nH]1 [Pemetrexed] (partner 0.2 µM)
Outline: as §1

Row | Cell Line | relative viability (PAC-1 + AZD7762; first compound 0.02 µM) | relative viability (PAC-1 + AZD7762; first compound 0.06325 µM) | relative viability (PAC-1 + AZD7762; first compound 0.2 µM) | relative viability (PAC-1 + AZD7762; first compound 2 µM) | relative viability (BMX-IN-1 + Luminespib; first compound 0.02 µM) | relative viability (BMX-IN-1 + Luminespib; first compound 0.2 µM) | relative viability (BMX-IN-1 + Luminespib; first compound 0.6325 µM) | relative viability (BMX-IN-1 + Luminespib; first compound 2 µM) | relative viability (Ibrutinib + Alpelisib; first compound 0.005 µM) | relative viability (Ibrutinib + Alpelisib; first compound 0.01581 µM) | relative viability (Ibrutinib + Alpelisib; first compound 0.05 µM) | relative viability (Ibrutinib + Alpelisib; first compound 0.1581 µM) | relative viability (Ibrutinib + Alpelisib; first compound 0.5 µM) | relative viability (BMX-IN-1 + Pemetrexed; first compound 0.02 µM) | relative viability (BMX-IN-1 + Pemetrexed; first compound 0.2 µM) | relative viability (BMX-IN-1 + Pemetrexed; first compound 0.6325 µM) | relative viability (BMX-IN-1 + Pemetrexed; first compound 2 µM)
1 | NCI-H1792 | 0.673 | 0.672 | 0.562 | 0.679 | 0.428 | 0.31 | 0.427 | 0.46 | 0.716 | 0.698 | 0.764 | 0.782 | 0.65 | 0.903 | 1.28 | 0.885 | 1.17
2 | NCI-H1793 | 0.501 | 0.587 | 0.547 | 0.568 | 0.172 | 0.167 | 0.167 | 0.204 | – | 0.635 | 0.605 | 0.587 | 0.575 | 0.945 | 1.01 | 0.966 | 0.806
3 | NCI-H1915 | 0.724 | 0.681 | 0.546 | 0.695 | 0.912 | 1.14 | 0.785 | 0.751 | – | 1 | 1.06 | 1.07 | 1.05 | 0.585 | 0.522 | 0.484 | 0.396
4 | NCI-H1944 | 0.428 | 0.542 | 0.502 | 0.516 | 0.812 | 0.729 | 0.728 | 0.706 | 0.659 | 0.685 | 0.784 | 0.755 | 0.521 | 0.632 | 0.746 | 0.603 | 0.592
5 | NCI-H1975 | 0.669 | 0.666 | 0.755 | 0.698 | 0.253 | 0.21 | 0.481 | 0.159 | 0.594 | 0.418 | 0.475 | 0.634 | 0.212 | 0.321 | 0.312 | 0.29 | 0.279
6 | NCI-H1993 | 0.829 | 0.797 | 0.748 | 0.837 | 0.854 | 0.805 | 0.829 | 0.737 | 0.644 | 0.715 | 0.613 | – | 0.742 | 0.65 | 0.669 | 0.645 | 0.622
7 | NCI-H2085 | 0.994 | 1 | 0.907 | 1.1 | 0.404 | 0.389 | 0.401 | 0.406 | 0.965 | 0.893 | 0.862 | 0.977 | 0.743 | 0.968 | 0.823 | 0.923 | 0.909
8 | NCI-H2087 | 1.36 | 1.4 | 1.09 | 1.44 | 0.192 | 0.179 | 0.188 | 0.133 | 1.09 | – | 1.19 | – | 1.19 | 0.725 | 0.715 | 0.669 | 0.625
9 | NCI-H2126 | 1.04 | 0.993 | 0.963 | 1.05 | 1 | 0.974 | 1.17 | 0.909 | – | 0.7 | 0.769 | 0.763 | 0.606 | 0.777 | 0.7 | 0.705 | 0.721
10 | NCI-H2170 | 0.874 | 0.856 | 0.928 | 0.846 | 0.921 | 0.77 | 0.821 | 0.819 | 0.728 | 0.362 | 0.278 | 0.773 | 0.231 | 0.273 | 0.285 | 0.319 | 0.243
11 | NCI-H2347 | 0.825 | 0.756 | 0.675 | 0.902 | 0.438 | 0.356 | 0.517 | 0.353 | 1 | 1.1 | 0.933 | 1.01 | 1.12 | 0.412 | 0.298 | 0.417 | 0.397
12 | NCI-H2405 | 0.648 | 0.828 | 0.86 | 0.802 | 0.747 | 0.754 | 0.669 | 0.674 | 0.706 | 0.713 | 0.83 | – | 0.706 | 1.13 | 1.19 | 1.09 | 0.94
13 | NCI-H3122 | 0.896 | 0.906 | 0.93 | 0.988 | 0.114 | 0.0826 | 0.103 | 0.0683 | 0.686 | 0.743 | 0.873 | 0.583 | 0.711 | 0.203 | 0.206 | 0.19 | 0.19
14 | PC-3 [JPC-3] | 0.848 | 0.985 | 0.883 | 0.877 | 0.82 | 0.757 | 0.709 | 0.68 | 1.03 | 0.946 | 0.941 | 1.04 | 0.517 | 0.933 | 1.28 | 1.44 | 1.04
15 | PC-14 | 0.382 | 0.322 | 0.45 | 0.343 | 0.184 | 0.107 | 0.14 | 0.152 | 0.974 | 0.954 | 0.909 | 1.05 | 0.632 | 0.121 | 0.134 | 0.145 | 0.134
16 | RERF-LC-KJ | 1.08 | 0.883 | 0.934 | 1.01 | 1.3 | 1.55 | 1.27 | 1.49 | 0.526 | 0.731 | 0.791 | 0.638 | 0.585 | 0.468 | 0.448 | 0.48 | 0.456
